Data taken from patent US20100130620A1, “NOVEL USE OF HYDROXYTYROSOL AND OLIVE EXTRACTS/CONCENTRATES CONTAINING IT” (priority 2007, published 2010).

Legend:
human ARPE-19 cells = format: cell-based
Method: (§1) The human ARPE-19 cells (a human retinal pigment epithelial cell-line) were maintained in DMEM-F12 medium (Dulbecco's modified Eagle's medium) supplemented with 10% fetal bovine serum, 0.348% sodium bicarbonate, 2 mM L-glutamine, 100 U/mL penicillin and 100 μg/ml streptomycin. Cell cultures were maintained at 37° C. in a humidified atmosphere of 95% air and 5% CO2. The medium was changed every 3 to 4 days. ARPE-19 cells were used within 10 generations.
(§2) All experiments were performed with an 80% confluence monolayer grown in 96-well plates or 6 well plates. Hydroxytyrosol (HTS) was dissolved in DMSO (dimethyl sulfoxide). Acrolein was dissolved in PBS (phosphate buffer salt) each time immediately before an experiment. For the acute toxicity study, cells were exposed to acrolein for 24 hours. The protective effects of HTS (Hydroxytyrosol) were studied with the acute toxicity model by pre-treating cells with HTS for 48 hours or for 7 days.
The MTT assay reduction assay was used as a […] index of cell viability. The optical densities were read at 555 nm using a microplate spectrophotometer (Spectra Max 340, Molecular Dabices, Sunnyvale, Calif.). Absorbance values were normalized with untreated cells to calculate the changes in cell viability.
The ARPE-19 cells were seeded at 4×10^4 per well in a 96 well plate. […]

ARPE-19 cells = assay: JC-1 assay for mitochondrial membrane potential; format: cell-based, human; details: 10-100 μM HTS, no acrolein
Method: as §1
as §2, with “The protective effects of HTS (Hydroxytyrosol) were studied with the acute toxicity model by pre-treating cells with HTS for 48 hours or for 7 days.” left out
Mitochondrial potential change (ΔΨ) was assessed in live APRE-19 cells using the lipophilic cationic probe 5,5′,6,6′-tetrachloro-1,1′,3,3′-tetraethylbenzimidazol-carbocyanine iodine (JC-1). For quantitative fluorescence measurement, cells were rinsed once after JC-1 staining and scanned with a multi-label counter (Wallac 1420; PerkinElmer Life Sciences, Wellesley, Mass.) at 485 nm excitation and 535 nm and 590 nm emission, to measure green and red JC-1 fluorescence respectively. […]

OCCc1ccc(O)c(O)c1 [HTS, 3,4-dihydroxyphenyl ethanol]
effect of HTS itself on cell viability (human ARPE-19 cells; 10-100 μM HTS, ARPE-19, no acrolein, FIG. 1): no apparent effect on cell viability | HTS concentration range protecting against acute acrolein-induced decrease in cell viability (human ARPE-19 cells; pretreatment, 75 μM acrolein 24 hours): 10 to 20 µM | effect of HTS itself on mitochondrial membrane potential (ARPE-19 cells): no apparent effect on mitochondrial membrane potential
